Columns and labels:
WWP2-N = biological target: T1, WWP2-N (Homo sapiens, UniProt O00308); assay: Octet RED binding assay to WWP2-N; settings: compound at 250 μM, binding measured over 120 seconds, Octet RED96e
T1 construct: GST; made in house
T1 sequence (O00308 1-335 limits assumed): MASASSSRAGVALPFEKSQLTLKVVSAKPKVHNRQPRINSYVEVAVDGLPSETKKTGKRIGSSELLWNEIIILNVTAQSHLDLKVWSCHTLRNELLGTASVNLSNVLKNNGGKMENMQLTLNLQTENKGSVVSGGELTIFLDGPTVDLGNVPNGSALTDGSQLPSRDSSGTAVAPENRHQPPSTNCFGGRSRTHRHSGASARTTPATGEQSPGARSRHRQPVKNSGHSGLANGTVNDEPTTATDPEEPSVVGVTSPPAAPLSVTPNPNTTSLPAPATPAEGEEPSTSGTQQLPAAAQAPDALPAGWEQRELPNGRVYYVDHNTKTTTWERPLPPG
Method: (§1) The WWP2 isoforms WWP2-FL, WWP2-N and WWP2-C were expressed as a GST fusion protein in bacteria and purified using glutathione sepharose 4B resin (GE Healthcare) according to the manufacturer's instructions. Expression and purity of the expressed WWP2 proteins was analysed by Coomassie Blue staining of the gel after separation by SDS-PAGE and western blotting (WB).
(§2) Binding assays were performed using the Octet RED96e System (FortéBio Inc., Menlo Park, Calif.). WWP2-FL, WWP2-N and WWP2-C proteins were biotinylated using NHS-PEO4-biotin (Pierce). Super-streptavidin (SSA) biosensors (FortéBio Inc., Menlo Park, Calif.) were coated in a solution containing 1 μM of biotinylated protein for 4 hours at 25° C. A duplicate set of sensors were incubated in assay buffer (1× kinetics buffer of ForteBio Inc.) with 5% DMSO without protein, for use as a background binding control. Both sets of sensors were blocked with a solution of 10 ug/ml Biocytin for 5 minutes at 25° C. A negative control of 5% DMSO was also used.
(§3) Binding of samples containing the different compounds (at a concentration of 250 μM) to coated and uncoated reference sensors was measured over 120 seconds. Analysis of the data was performed using a double reference subtraction (sample and sensor references) in the FortéBio data analysis software. […]

WWP2-C = biological target: T2, WWP2-C (Homo sapiens, UniProt O00308); assay: Octet RED binding assay to WWP2-C; settings: compound at 250 μM, binding measured over 120 seconds, Octet RED96e
T2 construct: GST; made in house
Method: as §1, §2, §3

[1] = tested on: primary renal fibroblasts; assay: Cellular fibrosis assay (ACTA2 immunostaining) in TGFβ1-stimulated primary renal fibroblasts; assay type: cell-based, mice; settings: compound 0.3 mM for 1 hour, then TGFβ1 stimulation 72 hours; fluorescence microscopy
Method: Primary renal fibroblasts were obtained from the renal cortex of mice. Minced renal cortex pieces (1-3 mm^3) were placed in 6 cm dishes with DMEM supplemented with 20% fetal bovine serum for less than 10 days to generate mice renal fibroblasts (P0), and passaged to P1 and P2 in DMEM supplemented with 10% fetal bovine serum for experiments. To mimic the in vivo activation of renal fibroblasts in fibrosis, cells were treated with human transforming growth factor-β1 (TGFβ1) (Sigma Aldrich, #T7039) at a concentration of 5 ng/μl for 72 hours.
To test the anti-fibrotic effect of candidate small-molecules, cells were treated with each compound (0.3 mM) for 1 hour, followed by stimulation with TGFβ1 before harvesting. After fixation with ice-cold acetone and blocking with 1% BSA for 30 min at RT, the slides were incubated with primary anti-smooth muscle a actin (ACTA2) antibody (ACTA2 is a widely recognised myofibroblast marker, indicating fibroblast activation) (Sigma-Aldrich, #A5228, 1:100) overnight at 4° C. Following washing steps, slides were incubated with Bovine Anti-Mouse IgG-CFL 488 secondary antibody (Santacruz Biotechnology, #sc-362256, 1:100) for 2 hours at RT. VectaShield Mounting Medium (Vector laboratories, #H-1200) with DAPI was used to stain the nuclei and the slides were covered by coverslip. Slides were imaged on Leica fluorescence microscope (Leica).

T2 sequence (O00308 440-870 limits assumed): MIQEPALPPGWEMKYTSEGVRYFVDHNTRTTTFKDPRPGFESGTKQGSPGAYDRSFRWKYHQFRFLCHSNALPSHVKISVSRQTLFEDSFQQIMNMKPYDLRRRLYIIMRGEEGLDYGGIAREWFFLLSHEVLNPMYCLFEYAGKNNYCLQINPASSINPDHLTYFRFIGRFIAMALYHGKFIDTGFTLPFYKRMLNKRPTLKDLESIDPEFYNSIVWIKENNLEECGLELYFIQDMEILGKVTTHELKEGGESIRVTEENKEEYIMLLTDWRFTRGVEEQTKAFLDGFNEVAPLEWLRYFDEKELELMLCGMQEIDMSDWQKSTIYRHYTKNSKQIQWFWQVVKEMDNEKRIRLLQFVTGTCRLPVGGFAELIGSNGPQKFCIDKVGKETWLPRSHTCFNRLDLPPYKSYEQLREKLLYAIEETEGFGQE

COc1ccc(-n2c(=O)c3c4c(sc3n(CC(=O)NCc3ccco3)c2=O)CCC4)c(OC)c1 [EP1, 2-[11-(2,4-dimethoxyphenyl)-10,12-dioxo-7-thia-9,11-diazatricyclo[6.4.0.02.6]dodeca-1(8),2(6)-dien-9-yl]-N-(furan-2-ylmethyl)acetamide]
Binding level (nm) to WWP2 N isoform (WWP2-N): 0.1253 nm | Binding level (nm) to WWP2 C isoform (WWP2-C): 0.0061 nm | Anti-fibrotic response in renal fibroblasts (ACTA2 expression) [1]: reduced expression of ACTA2

From patent US20220251569A1, “TREATMENT AND PREVENTION OF DISEASE MEDIATED BY WWP2” (National University of Singapore, priority 2019, published 2022)
